Results taken from patent publication US8778643B2, “Methods for increasing lipid levels and producing triacylglycerols in algae” (priority 2012, dated 2014).
Where “and” joins values, the source holds several entries; their conditions need not be identical. Identical values can stand only once. Like-named read-outs stand apart in the source and are kept apart here.

How the values were obtained:
[1] = test system: Phaeodactylum tricornutum; assay: Microplate assay: growth (absorbance 680 nm) and intracellular lipids (Nile Red fluorescence); format: cell-based; conditions: for effect on lipid production / lipid levels: microplate assay, multiple concentrations; for Nile Red Fluorescence % Increase: initial screening, p<0.05
Description: (§1) Stock cultures were aerated by stirring with bubbling air (homemade manifold with Petco air pump, 2-4% CO2) or by orbital shaking (Thermo Scientific MAXQ 2000) at a constant speed of 150 rpm at 22±3° C. with a 16:8 hour light/dark cycle. Stocks were kept at stationary phase for use. Algae were prepared as dictated by culture center.
(§2) Compounds were selected based on reported biological activity in non-microalgae organisms. To ensure that compounds retained their quality, they were stored under advised conditions after purchasing from the manufacturer. Solutions of all assay compounds were prepared as 10 mM stock solutions by dissolving in DMSO in 2-dram amber vials and then stored in darkness −20° C. 96-well PCR plates were used to create a stock plate layout that was then transferred to the algae microplates. A plate map was used to distribute each compound to a well based on molecule name, collection number, and CAS number. For 20 μM and 200 nM assay plates, 10 mM compound stock in DMSO was diluted into plate maps of 5 mM and 50 μM assay stocks, respectively.
(§3) All materials for assay experiments were autoclaved before each use to maintain axenic algae cultures. Algae species were checked for homogeneity using a TS-100 light microscope (Nikon, Japan). […] Diluted stock solutions were made immediately prior to use for consistency and optimal plate growth. Cell density was measured on a Thermo Scientific Genesys 10S Vis Spectrophotometer (ThermoFisher, San Jose), using a 1 mL cuvette at 680 nm.
(§4) Plates were originally run in triplicate, before replicates were increased to quadruplicate, along with a separate control plate to compare growth. Due to extensive evaporation in exterior wells over time, our unique algae plate layout was designed to use the 60 interior wells out of 96 wells for the experiment. The 36 outer wells were filled with Millipore water and media to prevent evaporation and edge effects in the inner algae wells, as well as serve as blanks. The 60 wells with algae contained a total volume of 251 μL (100 μL of media+DMSO compound stock +150 μL dilute algae stock). For 20 μM and 200 nM assay plates, 10 mM compound stock in DMSO is diluted into plate maps of 5 mM and 50 μM assay stocks, respectively. […] Plates were parafilmed during growth to limit the amount of evaporation that can occur. Plates were numbered, and numerically ordered to ensure they got the same shaker space.
(§5) The shakers are kept at a constant shaking of 150 rpm. Ambient temperature is 22±3° C.

[2] = test system: Nannochloris sp.; assay: as above; format: cell-based; conditions: for effect on lipid production / lipid levels: microplate assay, multiple concentrations
Description: as §1, §2, §3, §4, §5

[3] = test system: Nannochloropsis salina; conditions: for % Inc: increase of lipid production; for effect on lipid production / lipid levels: microplate assay, multiple concentrations
[4] = test system: Nannochloropsis oculata; conditions: for effect on lipid production / lipid levels: microplate assay, multiple concentrations; for % Lipid increase based on Nile red fluorescence intensity: t=day 0; for % Increase based on Nile Red Fluorescence Intensity: added t=day 0
Description: as §1, §2, §3, §4, §5

[5] = test system: Nannochloropsis oculata; assay: Lipid composition of batch culture extracts (fatty acid saturation / PUFA by 1H NMR, MALDI-TOF, GC/MS); format: cell-based
Description: The nonpolar algal extracts were harvested from 500 mL cultures when indicated on growth curves, a minimum of 3 days into stationary phase. […] Cells were crushed and nonpolar lipids were extracted by sonication (Fisher Scientific Model 120 Sonic Dismembrator, ThermoFisher, San Jose) for 1 minute in chloroform, followed by chloroform-methanol extractions, washed with PBS butter, and dried under vacuum.^55-60 The crude non-polar algae extracts were then analyzed by ^1H Nuclear Magnetic Resonance (^1H NMR) for verification of TAG presence and examination of the purity of the extract (determination of level of chlorophyll). The extracts were then divided for analysis; one part for transesterification, one part to save as crude extract, and one part for SPE separation and MALDI-TOF analysis of TAGs.
Triacylglycerols can be isolated by solid-phase extraction (SPE) with 500 mg silica SPE cartridges (Silicycle, Quebec). The nonpolar extract is dissolved in 300 μL hexanes, and loaded on the SPE cartridge primed with hexanes. A mixture of 80:20:1 hexanes/diethyl ether/acetic acid was used as mobile phase to elute the TAGs.^61 SPE removes any chlorophyll in this process. Residual polar fraction containing polar lipids and chlorophyll was obtained by elution with acetone. All extracts and TAG fractions were dried under vacuum and stored under argon in amber vials at −20° C. before spectroscopic analysis. After SPE, the purified TAG fraction was reanalyzed with ^1H NMR spectroscopy for TAG characterization.
The TOF was in Reflectron mode with laser intensity from 5500-6500 Volts. Each acquisition consisted of 2500 shots with a focus mass of 900 Da, and a scan range of m/z 400-1100. Multiple acquisition scans were performed at different laser intensities to determine optimal conditions. Samples for the MALDI-TOF were diluted to 5 mg/mL in hexane, and spotted in the fast-evaporation method in a 1:2 ratio with DHB (2,5-dihydroxybenzoic acid) as the matrix. Re-spotting with methanol allowed for the matrix and sample to mix without hexane interactions, and allowed for better crystal formation. All samples on MALDI plate were allowed to dry before MS analysis. Data was normalized to base peak in all cases.
After the initial weight was recorded, the nonpolar extract set aside for transesterification was dissolved in 3.0 mL of 0.6 M sulfuric acid in methanol and stirred vigorously at 60° C. for 45 minutes.
Initial GC/MS temperature was 50° C. and end was 200° C. over at a one hour period for optimal FAME peak separation.
Peak assignment of fatty acids and their derivatives are based on NMR spectroscopic studies of previously reported algal lipid extracts^9 and comparison to standards such as olive oil (ACROS) and fatty acid mixtures.
We developed a quick and robust method to screen if the screened compound effect fatty acid saturation levels using ^1H NMR spectroscopy. The amount of saturated fatty acids (SFA), monounsaturated fatty acids (MUFAs), and polyunsaturated fatty acids (PUFAs) was determined using peak area ratios.
Calculated based on ^1H NMR integral ratios for the proton signals for the methyl group of PUFA components vs. the methyl groups of monounsaturated and saturated components.

[6] = test system: Nannochloropsis oculata; assay: 500 mL batch culture: growth, dry weight and lipid extract (gravimetric); format: cell-based
Description: Batch cultures were grown in 500 mL Pyrex media bottles with stirring and air bubbling (homemade manifold with Petco air pump, 2-4% CO2). Incoming air was sterile filtered by Polyvent 4 disposable filters (Whatman, Kent, UK). […] To minimize bacterial contamination, all equipment and materials were autoclaved and media was added to flask in a Purifier Vertical Clean bench (Labconco, Kansas City, Mo.). […] The amount of DMSO is standardized for all experiments to 0.4%.
For all compound cultures, the 2 mL DMSO stock solution was added to media (without algae) first and mixed well. Control cultures were grown without DMSO. DMSO controls consisted of 0.04-1.0% DMSO. After the addition of algae and media, the container was plugged with a bug stopper vented closure cap and mixed thoroughly. Absorbance is measured immediately for Day 0 analysis. Afterward, absorbance was measured every 1-2 days with a cuvette (1 mL volume) on the Thermo Scientific Genesys 10S V is Spectrophotometer (ThermoFisher, San Jose) at 680 nm.
Batch cultures were also repeated in triplicate and compared to a control culture grown at the same time. Algae were harvested and lipids were extracted for gravimetric analysis.
The nonpolar algal extracts were harvested from 500 mL cultures when indicated on growth curves, a minimum of 3 days into stationary phase.
Cell density was monitored by measuring absorbance at 680 nm every 1-2 days.
500-mL cultures were harvested 6 days into stationary phase based on absorbance values. Cells were concentrated by centrifugation and lyophilization to remove water. Nonpolar lipids were extracted by sonication and solvent (chloroform-methanol and PBS buffer). […] Changes in lipid levels for batch cultures were determined by crude lipid extract mass.

[7] = Nannochloris sp., compounds tested at 20 μM, initial screening, p<0.05
[8] = N. oculata, compounds tested at 200 nM, initial screening, p<0.05
[9] = 200 nM, initial microplate screen, relative to control
[10] = 20 μM, initial microplate screen, relative to control
[11] = 10 μM, dose-response microplate screen
[12] = 40 μM, dose-response microplate screen
[13] = 40 μM, initial microplate screen, relative to control

Oc1cc(O)c2c(c1)O[C@H](c1ccc(O)c(O)c1)[C@H](O)C2 [(−)-epicatechin, (−)-Epicatechin]
effect on lipid production / lipid levels [1]: lipid production increased | effect on lipid production / lipid levels [2]: lipid production increased | % Inc ([3]; N. salina, best conc. 2.4 nM): 147.90% | effect on lipid production / lipid levels [3]: lipid production increased | effect on lipid production / lipid levels [4]: lipid production increased

Oc1cc(O)c2c(c1)O[C@H](c1cc(O)c(O)c(O)c1)[C@H](O)C2 [(−)-epigallocatechin, (2R,3R)-2-(3,4,5-trihydroxyphenyl)-3,4-dihydro-2H-chromene-3,5,7-triol]
effect on lipid production / lipid levels [1]: reduction in lipids | effect on lipid production / lipid levels [2]: reduction in lipids | % Inc ([3]; N. salina, best conc. 39 nM): 216.15% | effect on lipid production / lipid levels [3]: reduction in lipids | effect on lipid production / lipid levels [4]: reduction in lipids

N#CC(C#N)=Cc1cc(O)c(O)c(O)c1 [AG82]
Nile Red Fluorescence % Increase [2, 7]: 54.2% | Nile Red Fluorescence % Increase [4, 8]: 144.5%

COc1cc(C[C@H]2C(=O)OC[C@@H]2Cc2ccc(OC)c(OC)c2)ccc1O [Arctigenin, (3R,4R)-4-[(3,4-dimethoxyphenyl)methyl]-3-[(4-hydroxy-3-methoxyphenyl)methyl]-2-tetrahydrofuranone]
% Lipid increase based on Nile red fluorescence intensity ([1]; P. tricornutum, 41.2 nM, DMSO, t=day 0): 61% | % Increase based on Nile Red Fluorescence Intensity ([1]; P. tricornutum, 41.2 nM, DMSO delivery, added t=day 0): 61% | Absorbance (percent increase) [2, 9]: −3.4% | Nile Red percent increase [2, 9]: 66.0% | Absorbance (percent increase) [2, 10]: −5.4% | Nile Red percent increase [2, 10]: 79.0% | % Lipid increase based on Nile red fluorescence intensity ([3]; N. salina, 370.4 nM, DMSO, t=day 0): 64% | % Increase based on Nile Red Fluorescence Intensity ([3]; N. salina, 13 nM, DMSO delivery, added t=day 0): 59% | % Increase based on Nile Red Fluorescence Intensity ([3]; N. salina, 370.4 nM, DMSO delivery, added t=day 0): 64% | Nile Red Fluorescence % Increase [4, 8]: 152.2%

Nc1cc2ncnc(Nc3cccc(Br)c3)c2cc1N [BPDQ, 4-[(3-bromophenyl)amino]-6,7-diamino-quinazoline]
% Lipid increase based on Nile red fluorescence intensity ([1]; P. tricornutum, 400 fM, (water), t=day 0): 63% | % Increase based on Nile Red Fluorescence Intensity ([1]; P. tricornutum, 400 fM, dissolved in water, added t=day 0): 63% | Absorbance (percent increase) [2, 9]: −6.5% | Nile Red percent increase [2, 9]: 75.8% | Absorbance (percent increase) [3, 9]: −6.7% | Nile Red percent increase [3, 9]: 54.9% | % Lipid increase based on Nile red fluorescence intensity ([3]; N. salina, concentration 6.0 (unit not given), DMSO, t=day 0): 130% | % Increase based on Nile Red Fluorescence Intensity ([3]; N. salina, 6.0 nM, DMSO delivery, added t=day 0): 130% | % Increase based on Nile Red Fluorescence Intensity ([3]; N. salina, 55 nM, DMSO delivery, added t=day 0): 86%

O=c1cc(-c2ccccc2)oc2cc(O)c(O)c(O)c12 [Baicalein, 5,6,7-Trihydroxy-2-phenyl-chromen-4-one]
Nile Red percent increase ([1]; 0.0252 nM, dose-response microplate screen): 105% | % increase (lipid production) ([1]; 0.0252-55.2 nM): 5-94% | % increase (lipid production) ([3]; 0.0252-55.2 nM, DMSO delivery): 3-28% | % increase (lipid production) ([3]; 0.0252-165.6 nM (H2O)): 6-30 (H2O) % | Nile Red Fluorescence % Increase ([3]; N. salina, compounds tested at 20 μM, initial screening, p<0.05): 37.3% | % increase (lipid production) ([4]; 0.0252 nM): 25% | % Lipid increase based on Nile red fluorescence intensity ([4]; N. oculata, 25.2 pM, DMSO): 52% | % Lipid increase based on Nile red fluorescence intensity ([4]; N. oculata, 40 μM, (water)): 76% | % Increase based on Nile Red Fluorescence Intensity ([4]; N. oculata, 25.2 pM, DMSO delivery): 52% | % Increase based on Nile Red Fluorescence Intensity ([4]; N. oculata, 40 μM, dissolved in water): 76%

O=C(O)O [Bicarbonate]
MUFAs (%) [5]: 13% | PUFAs (%) [5]: 87% | SFAs (%) [5]: 0% | n3 PUFAs (%) [5]: 20%

NS(=O)(=O)c1ccc(N/N=C2\C(=O)Nc3ccc(Br)cc32)cc1 [CDK2 I2]
Absorbance (percent increase) [1, 9]: −7.9% | Nile Red percent increase [1, 9]: 50.3% | Nile Red percent increase ([1]; 2.5 μM, dose-response microplate screen): 160% | Nile Red percent increase [1, 11]: 140% | Nile Red percent increase [1, 12]: 380% | Absorbance (percent increase) [1, 13]: −14.6% | Nile Red percent increase [1, 13]: 150.6% | % Lipid increase based on Nile red fluorescence intensity ([1]; P. tricornutum, 40 μM, DMSO, t=day 0): 347% | Nile Red Fluorescence % Increase ([1]; P. tricornutum, compounds tested at 200 nM): 50.3% | Nile Red Fluorescence % Increase ([1]; P. tricornutum, compounds tested at 40 μM): 150.6% | % Increase based on Nile Red Fluorescence Intensity ([1]; P. tricornutum, 10 μM, DMSO delivery, added t=day 0): 86% | % Increase based on Nile Red Fluorescence Intensity ([1]; P. tricornutum, 40 μM, DMSO delivery, added t=day 0): 347% | % Inc ([1]; increase of lipid production, P. tricornutum, best conc. 2.5 μM): 163.88% | Nile Red percent increase ([2]; 40 nM-40 μM, dose-response microplate screen): 110-210% | Absorbance (percent increase) [2, 9]: −14.0% | Nile Red percent increase [2, 9]: 103.2% | Nile Red percent increase [3, 11]: 121% | Nile Red percent increase [3, 12]: 271%

O=C(O)/C=C/c1ccc(O)c(O)c1 [Caffeic acid]
% increase (lipid production) ([1]; 6-165 nM): 13-205% | % Lipid increase based on Nile red fluorescence intensity ([1]; P. tricornutum, 4 μM, (water), t=day 0): 94% | % Increase based on Nile Red Fluorescence Intensity ([1]; P. tricornutum, 4 μM, dissolved in water, added t=day 0): 94% | effect on lipid production / lipid levels [1]: minimal effect on lipid production | % increase (lipid production) ([3]; 0.0252 nM-165.6 nM, DMSO delivery): 1-40% | % increase (lipid production) ([3]; 0.0252-0.681 nM (H2O)): 62-110 (H2O) % | Nile Red percent increase ([3]; 0.076-681 nM (H2O), dose-response microplate screen): 96-117% | increase in lipid production ([3]; diluted in water, microplate): more than 100% | optimal effective concentration (lipid production) ([3]; lipoxygenase inhibitor microplate screen): 0.22 to 0.68 nM | lipid increase ([3]; with DMSO, microplate): < 20% | % increase (lipid production) ([4]; 0.681 nM): 5%

COc1cc(/C=C/C(=O)CC(=O)/C=C/c2ccc(O)c(OC)c2)ccc1O [Curcumin, (1E,6E)-1,7-bis (4-hydroxy-3-methoxyphenyl)-1,6-heptadiene-3,5-dione]
% increase (lipid production) ([1]; 6-494 nM): 7-30% | % increase (lipid production) ([3]; 0.0252 nM-0.227 nM (H2O)): 5-9 (H2O) % | % increase (lipid production) ([3]; 18 nM-13 μM, DMSO delivery): 18-69% | % increase (lipid production) ([4]; 0.0252-0.0757 nM): 4-10% | % Lipid increase based on Nile red fluorescence intensity ([4]; N. oculata, 75.7 pM, DMSO): 49% | % Increase based on Nile Red Fluorescence Intensity ([4]; N. oculata, 75.7 pM, DMSO delivery): 49%

CNC[C@H](O)c1ccc(O)c(O)c1 [Epinephrine]
Nile Red Fluorescence % Increase [2]: 44.9% | Nile Red Fluorescence % Increase [4]: 129.3%

OCC(O)CO [Glycerol, propane-1,2,3-triol]
SFAs (% of total lipids) ([5]; 11 mM, 1H NMR, Normal 24): 39 % of total lipids | n3 PUFAs (% of UFAs) ([5]; 11 mM, 1H NMR, Normal 37): 16 % of UFAs | All other PUFAs and MUFAs (% of UFAs) ([5]; 11 mM, 1H NMR, Normal 63): 84 % of UFAs | UFAs (% of total lipids) ([5]; 11 mM, 1H NMR, Normal 76): 61 % of total lipids | SFAs (%) ([5]; N. oculata, 1 g/L, n=1, Normal 0 ± 1): 30% | MUFAs (%) ([5]; N. oculata, 1 g/L, n=1, Normal 4 ± 7): 33% | n3 PUFAs (%) ([5]; N. oculata, 1 g/L, n=1, Normal 28 ± 4): 10% | PUFAs (%) ([5]; N. oculata, 1 g/L, n=1, Normal 96 ± 7): 38%

O=C(NCCN1CCC(n2c(=O)[nH]c3cc(Cl)ccc32)CC1)c1ccc(F)cc1 [Halopemide, N-[2-[4-(5-Chloro-2,3-dihydro-2-oxo-1H-benzimidazol-1-yl)piperidino]ethyl]-4-fluorobenzamide]
% change in abs ([1]; P. tricornutum, 10 μM): −31.22% | % in NR fl ([1]; P. tricornutum, 10 μM): 73.94% | % change in abs ([4]; N. oculata, 40 μM): −2.02% | % in NR fl ([4]; N. oculata, 40 μM): 55.13%

CC(O)C(=O)O (stereo not shown) [Lactic Acid]
Nile Red Fluorescence % Increase [2, 7]: 30.9% | Nile Red Fluorescence % Increase [4, 8]: 128.8%

O=C([O-])O.[Na+] [NaHCO3]
Absorbance at harvest [6]: 2.373 ± 0.217 | Dry weight [6]: 371 ± 117.8 | Extract Weight [6]: 93.5 ± 34.0

O=P(O)(O)Oc1ccc2ccccc2c1 [Napthyl acid phosphate, naphthalen-2-yl hydrogen phosphate]
% Increase based on Nile Red Fluorescence Intensity [1]: 51% | % Lipid increase based on Nile red fluorescence intensity [1]: 51% | % increase (lipid production) [1]: 4% and 1-60% | % increase (lipid production) [4]: 18%

O=c1c(O)c(-c2ccc(O)c(O)c2)oc2cc(O)cc(O)c12 [Quercitin]
% Inc ([4]; increase of lipid production, N. oculata, best conc. 2.5 μM): 67.10%

c1ccc2ncncc2c1 [Quinazoline, Benzopyrimidine]
% increase (lipid production) ([1]; 4-40 μM (H2O)): 15-26 (H2O) % | % increase (lipid production) ([3]; […]-40 μM): (none)

O=C(NCCCCCCNC(=O)ON=C1CCCCC1)ON=C1CCCCC1 [RHC80267, 1,6-bis(Cyclohexyloximinocarbonylamino)hexane]
% change in abs [1]: −6.46% | % in NR fl [1]: 45.19% | % in NR fl [3]: 71.52% and 68.33% | % change in abs [4]: 12.83% | % in NR fl [4]: 49.41%

Oc1ccc(/C=C/c2cc(O)cc(O)c2)cc1 [Resveratrol, 5-[(E)-2-(4-hydroxyphenyl)ethenyl]benzene-1,3-diol]
% Lipid increase based on Nile red fluorescence intensity ([1]; P. tricornutum, 10 nM, DMSO, t=day 0): 61% | % Increase based on Nile Red Fluorescence Intensity ([1]; P. tricornutum, 10 nM, DMSO delivery, added t=day 0): 61% | Nile Red Fluorescence % Increase [2, 7]: 53.3% | % Inc ([3]; N. salina, best conc. 10 nM): 272.72% | Nile Red Fluorescence % Increase [4, 8]: 120.4%

C/C(=C\CNc1ncnc2nc[nH]c12)CO [Zeatin, (E)-2-methyl-4-(7H-purin-6-ylamino)but-2-en-1-ol]
% Increase based on Nile Red Fluorescence Intensity [1]: 114% | % Lipid increase based on Nile red fluorescence intensity [1]: 114% | % Increase based on Nile Red Fluorescence Intensity [3]: 64% and 50% | % Lipid increase based on Nile red fluorescence intensity [3]: 64% | Nile Red Fluorescence % Increase [4]: 157.1%
